Test results from patent US20230330234A1, “HYPERBRANCHED POLYESTER POLYOL DERIVATIVE AS DRUG SOLUBILIZER” (FREIE UNIVERSITÄT BERLIN, priority 2020, published 2023).
Values after ≈ are worked out from the molar mass of the structure shown. Values belong to the compound of their own block, whether it stands above or below them.

Tests used:
[1] = Carrying potential of h(PG-co-PCL)60S0.95 by UV-VIS; format: physicochemical; conditions: calculated by UV
Method: For drugs presenting an absorption band at wavelength higher than 400 nm, UV-VIS analysis is chosen as quantification method. First, a calibration curve of the free drug in the suitable solvent mixture is recorded. Suitable combinations of solvent include mixtures of water and methanol, as well as of water and ethanol, in both cases in a ratio falling in a range of from 40 to 60% to 20 to 80%.
The calibration curve is prepared with at least 5 points, in a concentration range depending on the drug to be quantified. Linear regression is applied to generate the equation of the straight-line necessary to calculate the drug content.
The formulation is afterwards dissolved in the same medium and an UV-VIS spectrum is recorded. It is possible to use a straight-line equation to get the concentration of drug in solution. Knowing the total volume of the formulation, the content of drug, in mg, can be calculated.
(§1) The carrying potential (CP) of the polymer (solubilizing agent) is obtained as the ratio of the loaded and solubilized drug to the amount of solubilizing agent (Eq. 1).
(§2) The following tables (Table 5, Table 6 and Table 7) show the results of the performed analyses. In this context, h(PG-co-PCL)60S0.95 was used as hyperbranched polyester polyol derivative. Its non-sulfated backbone has a molecular weight of 60 kDa. The polyester polyol derivative has a sulfation degree of 95%.

[2] = Solubility in aqueous solution of the hyperbranched polyester polyol derivative;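 also: drug added to a previously prepared clear aqueous solution of the solubilizing polymer, stirred 18 h at room temperature in the dark, then centrifuged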
physchem [3] = conditions: water
physchem [4] = conditions: aqueous with cosolvent or surfactant or cyclodextrin, thermodynamic from solid
KB-V1 cells = assay: Cell viability experiment (toxicity) in KB-V1 cells; format: cell-based; conditions: Homo sapiens, free drug solubilized in DMSO vs drug solubilized in sulfated polyester polyol
HeLa cells = assay: Cell viability experiment (toxicity) in HeLa cells; format: cell-based; conditions: Homo sapiens, free drug solubilized in DMSO vs drug solubilized in sulfated polyester polyol
[5] = Carrying potential of h(PG-co-PCL)60S0.95 by elemental analysis; format: physicochemical; conditions: calculated by elemental analysis
Excerpt: as §1
For drugs presenting an absorption band at wavelength lower than 400 nm, the UV-VIS approach is not suitable, due to drug signals overlapping with signals of the solubilizing agent. Therefore, elemental analysis is chosen as alternative approach. The drugs chosen for the solubilization and entrapment contain nitrogen atoms, which are not present in the polymer structure. Via the quantification of the nitrogen content in the sample, it is possible to determine the amount of drug in it. For the loading quantification, the same equation is used as in the previous case.
as §2

[6] = Size and Z-potential investigation by DLS in PB; format: physicochemical; conditions: h(PG-co-PCL)60S0.95 with solubilized drug
Excerpt: The following tables (Table 5, Table 6 and Table 7) show the results of the performed analyses. In this context, h(PG-co-PCL)60S0.95 was used as hyperbranched polyester polyol derivative. Its non-sulfated backbone has a molecular weight of 60 kDa.

Compound: CNCc1ccc(-c2cc(-c3nc(-c4ccc(S(=O)(=O)C(C)C)cc4)cnc3N)on2)cc1 [Berzosertib]
Carrying potential [1]: 10% wt %

Compound: [2H]c1nc(C)nc([2H])c1-c1cc(NC[C@@H](C)c2cccc3c(C(=O)NC)ccnc23)ncn1 [M9831/VX-984]
Carrying potential [1]: 10% wt %

Compound: CN[C@@H]1C[C@H]2O[C@@](C)([C@@H]1OC)n1c3ccccc3c3c4c(c5c6ccccc6n2c5c31)C(=O)NC4 [Staurosporin]
Solubility in aqueous polymer solution [2]: >0.3 mg/mL | Solubility in water (Solubility in water): 0.04 mg/mL (≈ 85.7 µM)

Compound: CCN(CC)CCNC(=O)c1c(C)[nH]c(/C=C2\C(=O)Nc3ccc(F)cc32)c1C [Sunitinib]
IC50 (KB-V1 cells): 1.95 mg/L (≈ 4.9 µM) | Carrying potential [1]: 11% wt % | IC50 (HeLa cells): 3.52 mg/L (≈ 8.84 µM) | solubility (Solubility in water; Solubility in water): 0.03 mg/mL (≈ 75.3 µM) | Carrying potential [5]: 8.7%^ wt % | solubility at 18 h (physchem [4]): > 0.3 mg/mL

Compound: CC(=O)Nc1cccc(-n2c(=O)n(C3CC3)c(=O)c3c(Nc4ccc(I)cc4F)n(C)c(=O)c(C)c32)c1 [Trametinib]
Size (volume) ([6]; DLS in PB, in nm (unit assumed)): 14 ± 2 | Z-potential ([6]; in PB, in mV (unit assumed)): −18.9 | solubility (physchem [3]): 0.03 mg/mL (≈ 48.7 µM) | Carrying potential [5]: 2% wt % | solubility at 18 h (physchem [4]): > 0.3 mg/mL

The remaining lines, values ahead:

Solubility in aqueous polymer solution [2]: >0.3 mg/mL | Solubility in water (Solubility in water): 0.001 mg/mL (≈ 1.78 µM)
Compound: CC(C)(C)C[C@@H]1N[C@@H](C(=O)N[C@H]2CC[C@H](O)CC2)[C@H](c2cccc(Cl)c2F)[C@]12C(=O)Nc1cc(Cl)ccc12 [MI-773]

solubility (physchem [3]): 0.001 mg/mL (≈ 1.21 µM) | solubility (physchem [4]): > 0.3 mg/mL
Compound: Cc1c(-c2c(-c3ccc(F)o3)sc3ncnc(O[C@H](Cc4ccccc4OCc4ccnn4CC(F)(F)F)C(=O)O)c23)ccc(OCCN2CCN(C)CC2)c1Cl [S63845]
